Source: ChEMBL document CHEMBL2062516, “Design, synthesis and antibacterial activities of a series of new 2-oxaisocephems” (2012)
≈ marks a conversion by molar mass, not a printed value.

What was measured:
Type in all cases: functional
[1] = test system: Escherichia coli; test: Antibacterial activity against Escherichia coli ATCC 25922
[2] = test system: Pseudomonas aeruginosa; test: Ratio MIC for ceftazidime to compound MIC for Pseudomonas aeruginosa ATCC 27853
[3] = test system: Staphylococcus epidermidis; test: Antibacterial activity against Staphylococcus epidermidis
[4] = test system: Pseudomonas aeruginosa; test: Antibacterial activity against Pseudomonas aeruginosa ATCC 27853
[5] = test system: Klebsiella pneumoniae; test: Antibacterial activity against Klebsiella pneumoniae
[6] = test system: Staphylococcus aureus; test: Antibacterial activity against Staphylococcus aureus ATCC 25923
[7] = test system: Staphylococcus aureus; test: Ratio MIC for ceftazidime to compound MIC for Staphylococcus aureus ATCC 25923

`Nc1nc(/C(=N/OC2CCCC2)C(=O)N[C@@H]2C(=O)N3C(C(=O)O)=C(CSc4nnnn4CCO)OC[C@H]23)ns1` showed an MIC [1] of 4 µg/mL (≈ 6.89 µM), a Ratio [2] of 2 and an MIC [3] of 0.125 µg/mL (≈ 0.215 µM). For the same compound, the MIC [4] was 2 µg/mL (≈ 3.44 µM), the MIC [5] was 8 µg/mL (≈ 13.8 µM) and the MIC [6] was 1 µg/mL (≈ 1.72 µM).

`CCCCCO/N=C(\C(=O)N[C@@H]1C(=O)N2C(C(=O)O)=C(CSc3nncs3)OC[C@H]12)c1nsc(N)n1` showed an MIC [1] of 128 µg/mL (≈ 231 µM), an MIC [3] of 64 µg/mL (≈ 115 µM) and an MIC [4] of 16 µg/mL (≈ 28.8 µM). It also gave an MIC [5] of 32 µg/mL (≈ 57.7 µM) and an MIC [6] of 64 µg/mL (≈ 115 µM).

Compound `CCO/N=C(\C(=O)N[C@@H]1C(=O)N2C(C(=O)O)=C(CSc3nncs3)OC[C@H]12)c1nsc(N)n1` has an MIC [1] of 128 µg/mL (≈ 250 µM), an MIC [3] of 128 µg/mL (≈ 250 µM) and an MIC [4] of 128 µg/mL (≈ 250 µM). The MIC [5] was 128 µg/mL (≈ 250 µM) and the MIC [6] was 64 µg/mL (≈ 125 µM).

Compound `CO/N=C(\C(=O)N[C@@H]1C(=O)N2C(C(=O)O)=C(CSc3nncs3)OC[C@H]12)c1nsc(N)n1` has an MIC [1] of 64 µg/mL (≈ 128 µM), an MIC [3] of 16 µg/mL (≈ 32.1 µM) and an MIC [4] of 32 µg/mL (≈ 64.2 µM). It also gave an MIC [5] of 8 µg/mL (≈ 16 µM) and an MIC [6] of 64 µg/mL (≈ 128 µM).

`CCO/N=C(\C(=O)N[C@@H]1C(=O)N2C(C(=O)O)=C(CSc3nnnn3CCO)OC[C@H]12)c1nsc(N)n1` gave an MIC [1] of 2 µg/mL (≈ 3.7 µM), an MIC [3] of 0.125 µg/mL (≈ 0.231 µM) and an MIC [4] of 64 µg/mL (≈ 118 µM). It also gave an MIC [5] of 64 µg/mL (≈ 118 µM) and an MIC [6] of 0.5 µg/mL (≈ 0.925 µM).

`CC(C)CCO/N=C(\C(=O)N[C@@H]1C(=O)N2C(C(=O)O)=C(CSc3nncs3)OC[C@H]12)c1nsc(N)n1` was tested, and the MIC [1] was 128 µg/mL (≈ 231 µM), the MIC [3] was 128 µg/mL (≈ 231 µM) and the MIC [4] was 128 µg/mL (≈ 231 µM). The MIC [5] was 128 µg/mL (≈ 231 µM) and the MIC [6] was 128 µg/mL (≈ 231 µM).

In the case of `Nc1nc(/C(=N/OC2CCCCC2)C(=O)N[C@@H]2C(=O)N3C(C(=O)O)=C(CSc4nncs4)OC[C@H]23)ns1`, the MIC [1] is reported as 128 µg/mL (≈ 226 µM), the MIC [3] is reported as 16 µg/mL (≈ 28.2 µM) and the MIC [4] is reported as 16 µg/mL (≈ 28.2 µM). It also gave an MIC [5] of 16 µg/mL (≈ 28.2 µM) and an MIC [6] of 128 µg/mL (≈ 226 µM).

Compound `CC(C)CCO/N=C(\C(=O)N[C@@H]1C(=O)N2C(C(=O)O)=C(CSc3nnnn3CCO)OC[C@H]12)c1nsc(N)n1` has an MIC [1] of 16 µg/mL (≈ 27.5 µM), a Ratio [2] of 2 and an MIC [3] of 0.125 µg/mL (≈ 0.215 µM). The MIC [4] was 8 µg/mL (≈ 13.7 µM), the MIC [5] was 64 µg/mL (≈ 110 µM) and the MIC [6] was 4 µg/mL (≈ 6.87 µM).

With `CC(C)O/N=C(\C(=O)N[C@@H]1C(=O)N2C(C(=O)O)=C(CSc3nnnn3CCO)OC[C@H]12)c1nsc(N)n1` the MIC [1] was 0.5 µg/mL (≈ 0.902 µM), the MIC [3] was 0.125 µg/mL (≈ 0.225 µM) and the MIC [4] was 8 µg/mL (≈ 14.4 µM). For the same compound, the MIC [5] was 32 µg/mL (≈ 57.7 µM) and the MIC [6] was 0.5 µg/mL (≈ 0.902 µM).

`CC(C)(O/N=C(\C(=O)N[C@@H]1C(=O)N2C(C(=O)[O-])=C(C[n+]3ccccc3)CS[C@H]12)c1csc(N)n1)C(=O)O` [CEFTAZIDIME] gave an MIC [1] of 4 µg/mL (≈ 7.32 µM), an MIC [3] of 16 µg/mL (≈ 29.3 µM) and an MIC [4] of 16 µg/mL (≈ 29.3 µM). The MIC [5] was 32 µg/mL (≈ 58.5 µM) and the MIC [6] was 2 µg/mL (≈ 3.66 µM).

Work on `CCCCCO/N=C(\C(=O)N[C@@H]1C(=O)N2C(C(=O)O)=C(CSc3nnnn3CCO)OC[C@H]12)c1nsc(N)n1` yielded an MIC [1] of 8 µg/mL (≈ 13.7 µM), a Ratio [2] of 2 and an MIC [3] of 0.125 µg/mL (≈ 0.215 µM). The MIC [4] was 4 µg/mL (≈ 6.87 µM), the MIC [5] was 32 µg/mL (≈ 54.9 µM) and the MIC [6] was 16 µg/mL (≈ 27.5 µM).

`CC(C)O/N=C(\C(=O)N[C@@H]1C(=O)N2C(C(=O)O)=C(CSc3nncs3)OC[C@H]12)c1nsc(N)n1` was tested, and the MIC [1] was 128 µg/mL (≈ 243 µM), the MIC [3] was 1 µg/mL (≈ 1.9 µM) and the MIC [4] was 4 µg/mL (≈ 7.6 µM). For the same compound, the MIC [5] was 1 µg/mL (≈ 1.9 µM) and the MIC [6] was 32 µg/mL (≈ 60.8 µM).

`Nc1nc(/C(=N/OC2CCCCC2)C(=O)N[C@@H]2C(=O)N3C(C(=O)O)=C(CSc4nnnn4CCO)OC[C@H]23)ns1` gave an MIC [1] of 32 µg/mL (≈ 53.8 µM), an MIC [3] of 64 µg/mL (≈ 108 µM) and an MIC [4] of 64 µg/mL (≈ 108 µM). The MIC [5] was 128 µg/mL (≈ 215 µM) and the MIC [6] was 2 µg/mL (≈ 3.36 µM).

`Nc1nc(/C(=N/OC2CCCC2)C(=O)N[C@@H]2C(=O)N3C(C(=O)O)=C(CSc4nncs4)OC[C@H]23)ns1` was tested, and the MIC [1] was 128 µg/mL (≈ 232 µM), the MIC [3] was 8 µg/mL (≈ 14.5 µM) and the MIC [4] was 16 µg/mL (≈ 29 µM). For the same compound, the MIC [5] was 4 µg/mL (≈ 7.24 µM) and the MIC [6] was 128 µg/mL (≈ 232 µM).

For `CO/N=C(\C(=O)N[C@@H]1C(=O)N2C(C(=O)O)=C(CSc3nnnn3CCO)OC[C@H]12)c1nsc(N)n1`, the MIC [1] was 2 µg/mL (≈ 3.8 µM), the MIC [3] was 16 µg/mL (≈ 30.4 µM) and the MIC [4] was 16 µg/mL (≈ 30.4 µM). For the same compound, the Ratio [7] was 4, the MIC [5] was 32 µg/mL (≈ 60.8 µM) and the MIC [6] was 0.5 µg/mL (≈ 0.95 µM).
